Assay results from the supplement of paper PMC7017272.
± gives the standard deviation of the averaged measurements.

Legend:
Settings in all cases: treatment time: 3 days
UT-SCC-24A = assay: drug sensitivity score (DSS); higher = more sensitive
Description: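 HNSCC cell lines (500 cells/well, 384-well) were cultured on plastic, on top of (2D) or embedded (3D) in Matrigel or human leiomyoma matrix Myogel (500 ug/mL; Myogel 3D mixed with rat collagen I). Cells were treated for 3 days with 5 ten-fold concentrations of each drug, and viability was read by CellTiter-Glo. Suffixes _1/_2/_3 on drug names are replicates.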

UT-SCC-106A = assay: drug sensitivity score (DSS); higher = more sensitive; extreme values may be limits of the assay
Outline: (§1)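 Using 384-well plates, 500 cells/well of HPV-negative HNSCC cell lines were grown on plastic, on 500 µg/mL Matrigel or Myogel coatings, or embedded in Matrigel or Myogel with rat collagen I. They were treated with compounds at five 10-fold concentrations for 3 days, and luminescence from CellTiter-Glo 2.0 was normalised to vehicle (0.1% DMSO) and cell-killing control wells. IC50, maximal inhibition and drug sensitivity score were derived from percent-inhibition dose–response curves in the FIMM pipeline.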

UT-SCC-14 = assay: as above
Outline: as §1

UT-SCC-24B = assay: as above
Outline: as §1

UT-SCC-28 = assay: as above
Outline: as §1

UT-SCC-40 = assay: as above
Outline: as §1

UT-SCC-42A = assay: as above
Outline: as §1

UT-SCC-42B = assay: as above
Outline: as §1

UT-SCC-44 = assay: as above
Outline: as §1

UT-SCC-73 = assay: as above
Outline: as §1

UT-SCC-81 = assay: as above
Outline: as §1

UT-SCC-8 = assay: as above
Outline: as §1

[1] = culture condition: embedded in Matrigel
[2] = culture condition: on top of Matrigel
[3] = culture condition: on top of Myogel
[4] = culture condition: plastic 2D (no matrix)
[5] = culture condition: embedded in Myogel + collagen I

Compound: COc1cc2ncnc(Nc3ccc(F)c(Cl)c3)c2cc1OCCCN1CCOCC1 [Gefitinib]
- drug sensitivity score (UT-SCC-24A; [1]): 21.1 ± 1.1 DSS
- drug sensitivity score (UT-SCC-24A; [2]): 17 ± 2.1 DSS
- drug sensitivity score (UT-SCC-24A; [3]): 3.27 ± 2.5 DSS
- drug sensitivity score (UT-SCC-24A; [4]): 16.4 ± 3.7 DSS
- drug sensitivity score (UT-SCC-106A; [1]): 4.63 ± 3.7 DSS
- drug sensitivity score (UT-SCC-106A; [5]): 0.4 ± 0.69 DSS
- drug sensitivity score (UT-SCC-106A; [2]): 8.13 ± 3.1 DSS
- drug sensitivity score (UT-SCC-106A; [3]): 0.1 ± 0.17 DSS
- drug sensitivity score (UT-SCC-106A; [4]): 7.53 ± 1 DSS
- drug sensitivity score (UT-SCC-14; [5]): 1.63 ± 2.7 DSS
- drug sensitivity score (UT-SCC-14; [2]): 3.87 ± 2.3 DSS
- drug sensitivity score (UT-SCC-14; [3]): 3.33 ± 3 DSS
- drug sensitivity score (UT-SCC-14; [4]): 2.6 ± 4.5 DSS
- drug sensitivity score (UT-SCC-24B; [1]): 12.5 ± 1.3 DSS
- drug sensitivity score (UT-SCC-24B; [5]): 10.1 ± 3.4 DSS
- drug sensitivity score (UT-SCC-24B; [2]): 12.4 ± 1 DSS
- drug sensitivity score (UT-SCC-24B; [3]): 5.73 ± 1.2 DSS
- drug sensitivity score (UT-SCC-24B; [4]): 17.5 ± 0.64 DSS
- drug sensitivity score (UT-SCC-28; [1]): 0.767 ± 1.3 DSS
- drug sensitivity score (UT-SCC-28; [5]): 0 DSS
- drug sensitivity score (UT-SCC-28; [2]): 0.433 ± 0.75 DSS
- drug sensitivity score (UT-SCC-28; [4]): 0 DSS
- drug sensitivity score (UT-SCC-40; [1]): 6.87 ± 1.9 DSS
- drug sensitivity score (UT-SCC-40; [5]): 2.33 ± 2.6 DSS
- drug sensitivity score (UT-SCC-40; [2]): 3.7 ± 0.7 DSS
- drug sensitivity score (UT-SCC-40; [3]): 0.433 ± 0.51 DSS
- drug sensitivity score (UT-SCC-40; [4]): 0.267 ± 0.25 DSS
- drug sensitivity score (UT-SCC-42A; [5]): 0 DSS
- drug sensitivity score (UT-SCC-42A; [2]): 5 ± 4 DSS
- drug sensitivity score (UT-SCC-42A; [3]): 1.43 ± 1.6 DSS
- drug sensitivity score (UT-SCC-42A; [4]): 2 ± 1.4 DSS
- drug sensitivity score (UT-SCC-42B; [1]): 12.3 ± 6.1 DSS
- drug sensitivity score (UT-SCC-42B; [2]): 2.67 ± 4.6 DSS
- drug sensitivity score (UT-SCC-42B; [3]): 0 DSS
- drug sensitivity score (UT-SCC-42B; [4]): 1.07 ± 1.7 DSS
- drug sensitivity score (UT-SCC-44; [1]): 0 DSS
- drug sensitivity score (UT-SCC-44; [5]): 0.567 ± 0.98 DSS
- drug sensitivity score (UT-SCC-44; [2]): 0.5 ± 0.7 DSS
- drug sensitivity score (UT-SCC-44; [3]): 1.03 ± 1.5 DSS
- drug sensitivity score (UT-SCC-44; [4]): 0.167 ± 0.29 DSS
- drug sensitivity score (UT-SCC-73; [1]): 0.0667 ± 0.12 DSS
- drug sensitivity score (UT-SCC-73; [5]): 1.73 ± 3 DSS
- drug sensitivity score (UT-SCC-73; [2]): 1.23 ± 2.1 DSS
- drug sensitivity score (UT-SCC-73; [3]): 0.133 ± 0.15 DSS
- drug sensitivity score (UT-SCC-73; [4]): 0.2 ± 0.27 DSS
- drug sensitivity score (UT-SCC-81; [1]): 23.2 ± 0.32 DSS
- drug sensitivity score (UT-SCC-81; [5]): 1.57 ± 2.7 DSS
- drug sensitivity score (UT-SCC-81; [2]): 10.8 ± 5.8 DSS
- drug sensitivity score (UT-SCC-81; [3]): 1 ± 1.1 DSS
- drug sensitivity score (UT-SCC-81; [4]): 3.83 ± 5.2 DSS
- drug sensitivity score (UT-SCC-8; [1]): 14 ± 4.7 DSS
- drug sensitivity score (UT-SCC-8; [5]): 0 DSS
- drug sensitivity score (UT-SCC-8; [2]): 7.87 ± 2.8 DSS
- drug sensitivity score (UT-SCC-8; [3]): 2.4 ± 3.8 DSS
- drug sensitivity score (UT-SCC-8; [4]): 5.97 ± 4.5 DSS
